≈ marks a conversion by molar mass, not a printed value. Calls of active or inactive are those of the source. The rule behind the calls is not given here.
Assays:
Acinetobacter baumannii [1] = assay: Antibacterial activity against Acinetobacter baumannii ATCC 19606 assessed as reduction in bacterial cell growth incubated for 18 to 20 hrs by broth microdilution method; assay type: functional
Staphylococcus aureus [2] = assay: Antibacterial activity against intracellular methicillin resistant Staphylococcus aureus USA400 infected in mouse J774 cells assessed as log10 reduction of viable bacterial cells incubated for 24 hrs followed by re-plating on tryptic soy agar plates at 37 degC for 18 to 22 hrs by broth microdilution assay; assay type: functional
Staphylococcus aureus [3] = assay: Bactericidal activity against vancomycin resistant Staphylococcus aureus VRS11a assessed as reduction in bacterial cell growth incubated for 18 to 20 hrs followed by re-plating on tryptic soy agar plates at 37 degC for 18 hrs by broth microdilution assay; assay type: functional
Streptococcus pneumoniae [4] = assay: Bactericidal activity against Methicillin resistant Streptococcus pneumoniae ATCC 700677 assessed as reduction in bacterial cell growth incubated for 18 to 20 hrs followed by re-plating on tryptic soy agar plates at 37 degC for 18 hrs by broth microdilution assay; assay type: functional
Staphylococcus aureus [5] = assay: Antibacterial activity against vancomycin resistant Staphylococcus aureus VRS10 assessed as reduction in bacterial cell growth incubated for 18 to 20 hrs by broth microdilution method; assay type: functional
Listeria monocytogenes [6] = assay: Bactericidal activity against Listeria monocytogenes ATCC 19111 assessed as reduction in bacterial cell growth incubated for 18 to 20 hrs followed by re-plating on tryptic soy agar plates at 37 degC for 18 hrs by broth microdilution assay; assay type: functional
Staphylococcus aureus [7] = assay: Antibacterial activity against methicillin-resistant Staphylococcus aureus USA300 assessed as reduction in bacterial cell growth incubated for 18 to 20 hrs by broth microdilution method; assay type: functional
Streptococcus pneumoniae [8] = assay: Antibacterial activity against Cephalosporin resistant Streptococcus pneumoniae ATCC 51916 assessed as reduction in bacterial cell growth incubated for 18 to 20 hrs by broth microdilution method; assay type: functional
Staphylococcus aureus [9] = assay: Bactericidal activity against Staphylococcus aureus ATCC 6538 assessed as reduction in bacterial cell growth incubated for 18 to 20 hrs followed by re-plating on tryptic soy agar plates at 37 degC for 18 hrs by broth microdilution assay; assay type: functional
Escherichia coli [10] = assay: Bactericidal activity against Escherichia coli JW55031 harboring deltatolC mutant assessed as reduction in bacterial cell growth incubated for 18 to 20 hrs followed by re-plating on tryptic soy agar plates at 37 degC for 18 hrs by broth microdilution assay; assay type: functional
Staphylococcus aureus [11] = assay: Antibacterial activity against vancomycin resistant Staphylococcus aureus VRS12 assessed as reduction in bacterial cell growth incubated for 18 to 20 hrs by broth microdilution method; assay type: functional
Staphylococcus aureus [12] = assay: Antibacterial activity against Staphylococcus aureus NRS107 assessed as reduction in bacterial cell growth incubated for 18 to 20 hrs by broth microdilution method; assay type: functional
Escherichia coli [13] = assay: BActericidal activity against Escherichia coli BW25113 assessed as reduction in bacterial cell growth incubated for 18 to 20 hrs followed by re-plating on tryptic soy agar plates at 37 degC for 18 hrs by broth microdilution assay; assay type: functional
Enterococcus faecalis [14] = assay: Bactericidal activity against vancomycin resistant Enterococcus faecalis ATCC 51299 assessed as reduction in bacterial cell growth incubated for 18 to 20 hrs followed by re-plating on tryptic soy agar plates at 37 degC for 18 hrs by broth microdilution assay; assay type: functional
Listeria monocytogenes [15] = assay: Antibacterial activity against Listeria monocytogenes ATCC 19111 assessed as reduction in bacterial cell growth incubated for 18 to 20 hrs by broth microdilution method; assay type: functional
Staphylococcus aureus [16] = assay: Bactericidal activity against Staphylococcus aureus NRS107 assessed as reduction in bacterial cell growth incubated for 18 to 20 hrs followed by re-plating on tryptic soy agar plates at 37 degC for 18 hrs by broth microdilution assay; assay type: functional
J774 = assay: Cytotoxicity against mouse J774 assessed as reduction in cell viability at 16 ug/ml incubated for 24 hrs by MTS assay; assay type: cell-based; conditions: j774, 24 h
Staphylococcus aureus [17] = assay: Antibacterial activity against Staphylococcus aureus ATCC 6538 assessed as reduction in bacterial cell growth incubated for 18 to 20 hrs by broth microdilution method; assay type: functional
Acinetobacter baumannii [18] = assay: Bactericidal activity against Acinetobacter baumannii ATCC 19606 assessed as reduction in bacterial cell growth incubated for 18 to 20 hrs followed by re-plating on tryptic soy agar plates at 37 degC for 18 hrs by broth microdilution assay; assay type: functional
[19] = system: Staphylococcus epidermidis; assay: Bactericidal activity against methicillin resistant Staphylococcus epidermidis NRS101 assessed as reduction in bacterial cell growth incubated for 18 to 20 hrs followed by re-plating on tryptic soy agar plates at 37 degC for 18 hrs by broth microdilution assay; assay type: functional
Pseudomonas aeruginosa [20] = assay: Antibacterial activity against Pseudomonas aeruginosa ATCC 15442 assessed as reduction in bacterial cell growth incubated for 18 to 20 hrs by broth microdilution method; assay type: functional
Enterococcus faecium [21] = assay: Bactericidal activity against vancomycin resistant Enterococcus faecium ATCC 700221 assessed as reduction in bacterial cell growth incubated for 18 to 20 hrs followed by re-plating on tryptic soy agar plates at 37 degC for 18 hrs by broth microdilution assay; assay type: functional
Staphylococcus aureus [22] = assay: Antibacterial activity against methicillin resistant Staphylococcus aureus USA400 assessed as reduction in bacterial cell growth incubated for 18 to 20 hrs by broth microdilution method; assay type: functional
Klebsiella pneumoniae = assay: Antibacterial activity against Klebsiella pneumoniae BAA-1706 assessed as reduction in bacterial cell growth incubated for 18 to 20 hrs by broth microdilution method; assay type: functional
Enterococcus faecalis [23] = assay: Antibacterial activity against vancomycin resistant Enterococcus faecalis ATCC 51299 assessed as reduction in bacterial cell growth incubated for 18 to 20 hrs by broth microdilution method; assay type: functional
Streptococcus pneumoniae [24] = assay: Antibacterial activity against Methicillin resistant Streptococcus pneumoniae ATCC 700677 assessed as reduction in bacterial cell growth incubated for 18 to 20 hrs by broth microdilution method; assay type: functional
Pseudomonas aeruginosa [25] = assay: Bactericidal activity against Pseudomonas aeruginosa ATCC 15442 assessed as reduction in bacterial cell growth incubated for 18 to 20 hrs followed by re-plating on tryptic soy agar plates at 37 degC for 18 hrs by broth microdilution assay; assay type: functional
Staphylococcus aureus [26] = assay: Bactericidal activity against vancomycin resistant Staphylococcus aureus VRS10 assessed as reduction in bacterial cell growth incubated for 18 to 20 hrs followed by re-plating on tryptic soy agar plates at 37 degC for 18 hrs by broth microdilution assay; assay type: functional
Enterococcus faecium [27] = assay: Antibacterial activity against vancomycin resistant Enterococcus faecium ATCC 700221 assessed as reduction in bacterial cell growth incubated for 18 to 20 hrs by broth microdilution method; assay type: functional
Staphylococcus aureus [28] = assay: Antibacterial activity against vancomycin resistant Staphylococcus aureus VRS11a assessed as reduction in bacterial cell growth incubated for 18 to 20 hrs by broth microdilution method; assay type: functional
Escherichia coli [29] = assay: Antibacterial activity against Escherichia coli JW55031 harboring deltatolC mutant assessed as reduction in bacterial cell growth incubated for 18 to 20 hrs by broth microdilution method; assay type: functional
Staphylococcus aureus [30] = assay: Bactericidal activity against methicillin resistant Staphylococcus aureus NRS119 assessed as reduction in bacterial cell growth incubated for 18 to 20 hrs followed by re-plating on tryptic soy agar plates at 37 degC for 18 hrs by broth microdilution assay; assay type: functional
Staphylococcus aureus [31] = assay: Bactericidal activity against methicillin-resistant Staphylococcus aureus USA300 assessed as reduction in bacterial cell growth incubated for 18 to 20 hrs followed by re-plating on tryptic soy agar plates at 37 degC for 18 hrs by broth microdilution assay; assay type: functional

| SMILES | MIC (Acinetobacter baumannii [1]) | MBC (Staphylococcus aureus [3]) | MBC (Streptococcus pneumoniae [4]) | MIC (Staphylococcus aureus [5]) | MBC (Listeria monocytogenes [6]) | MIC (Staphylococcus aureus [7]) | MIC (Streptococcus pneumoniae [8]) | MBC (Staphylococcus aureus [9]) | MBC (Escherichia coli [10]) | MIC (Staphylococcus aureus [11]) | MIC (Staphylococcus aureus [12]) | MBC (Escherichia coli [13]) | MBC (Enterococcus faecalis [14]) | MIC (Listeria monocytogenes [15]) | MBC (Staphylococcus aureus [16]) | Activity (J774) | MIC (Staphylococcus aureus [17]) | MBC (Acinetobacter baumannii [18]) | MBC [19] | MIC (Pseudomonas aeruginosa [20]) | also measured |
| --- | --- | --- | --- | --- | --- | --- | --- | --- | --- | --- | --- | --- | --- | --- | --- | --- | --- | --- | --- | --- | --- |
| C/C(=N\NC(=N)N)c1sc(-c2ccc(C#Cc3ccc(N)cc3)cc2)nc1C | 64 µg/mL (≈ 165 µM) | 32 µg/mL (≈ 82.4 µM) | 32 µg/mL (≈ 82.4 µM) | 16 µg/mL (≈ 41.2 µM) | > 64 µg/mL | 4 µg/mL (≈ 10.3 µM) | 32 µg/mL (≈ 82.4 µM) | 4 µg/mL (≈ 10.3 µM) | 16 µg/mL (≈ 41.2 µM) | 16 µg/mL (≈ 41.2 µM) | 4 µg/mL (≈ 10.3 µM) | > 64 µg/mL | > 64 µg/mL | 32 µg/mL (≈ 82.4 µM) | 8 µg/mL (≈ 20.6 µM) | Non-Toxic | 2 µg/mL (≈ 5.15 µM) | > 64 µg/mL | 2 µg/mL (≈ 5.15 µM) | > 64 µg/mL | Activity call (Staphylococcus aureus [2]): inactive; MBC (Enterococcus faecium [21]): 16 µg/mL (≈ 41.2 µM); MIC (Staphylococcus aureus [22]): 4 µg/mL (≈ 10.3 µM); MIC (Klebsiella pneumoniae): > 64 µg/mL; MIC (Enterococcus faecalis [23]): > 64 µg/mL; MIC (Streptococcus pneumoniae [24]): 16 µg/mL (≈ 41.2 µM); MBC (Pseudomonas aeruginosa [25]): > 64 µg/mL; MBC (Staphylococcus aureus [26]): 32 µg/mL (≈ 82.4 µM); MIC (Enterococcus faecium [27]): 4 µg/mL (≈ 10.3 µM); MIC (Staphylococcus aureus [28]): 16 µg/mL (≈ 41.2 µM); MIC (Escherichia coli [29]): 16 µg/mL (≈ 41.2 µM); MBC (Staphylococcus aureus [30]): 16 µg/mL (≈ 41.2 µM); MBC (Staphylococcus aureus [31]): 16 µg/mL (≈ 41.2 µM) |
| C/C(=N\NC(=N)N)c1sc(-c2ccc(C#Cc3ccc(C)s3)cc2)nc1C | 32 µg/mL (≈ 81.3 µM) | 8 µg/mL (≈ 20.3 µM) | 32 µg/mL (≈ 81.3 µM) | 4 µg/mL (≈ 10.2 µM) | 32 µg/mL (≈ 81.3 µM) | 8 µg/mL (≈ 20.3 µM) | 8 µg/mL (≈ 20.3 µM) | 4 µg/mL (≈ 10.2 µM) | 64 µg/mL (≈ 163 µM) | 8 µg/mL (≈ 20.3 µM) | 4 µg/mL (≈ 10.2 µM) | > 64 µg/mL | 64 µg/mL (≈ 163 µM) | 8 µg/mL (≈ 20.3 µM) | 4 µg/mL (≈ 10.2 µM) | Non-Toxic | 4 µg/mL (≈ 10.2 µM) | 64 µg/mL (≈ 163 µM) | 4 µg/mL (≈ 10.2 µM) | > 64 µg/mL | Activity (Staphylococcus aureus [2]): 0.21 log10CFU; MBC (Enterococcus faecium [21]): 4 µg/mL (≈ 10.2 µM); MIC (Staphylococcus aureus [22]): 2 µg/mL (≈ 5.08 µM); MIC (Klebsiella pneumoniae): 32 µg/mL (≈ 81.3 µM); MIC (Enterococcus faecalis [23]): 16 µg/mL (≈ 40.7 µM); MIC (Streptococcus pneumoniae [24]): 8 µg/mL (≈ 20.3 µM); MBC (Pseudomonas aeruginosa [25]): > 64 µg/mL; MBC (Staphylococcus aureus [26]): 8 µg/mL (≈ 20.3 µM); MIC (Enterococcus faecium [27]): 2 µg/mL (≈ 5.08 µM); MIC (Staphylococcus aureus [28]): 4 µg/mL (≈ 10.2 µM); MIC (Escherichia coli [29]): 32 µg/mL (≈ 81.3 µM); MBC (Staphylococcus aureus [30]): 4 µg/mL (≈ 10.2 µM); MBC (Staphylococcus aureus [31]): 16 µg/mL (≈ 40.7 µM) |
